The values that follow come from patent US20150031702A1, “PI3K INHIBITORS FOR TREATING COUGH” (GlaxoSmithkline Intellectual Property (No.2) Limited, priority 2012, published 2015).

This assay relates to dissociated dorsal ganglion sensory neurons. Nature of the assay: Sensitization assay: capsaicin-induced Calcium Imaging response after sensitizing cocktail. Type of assay: cell-based, mouse. As to conditions: co-incubation with various doses of compound (0.002-1000 nM); sensitizing cocktail NGF, GDNF, PGE2, 1β; 3rd capsaicin-induced peak, Fura-2 f340/f380; FIG. 1. The source says: Capsaicin, the active ingredient in pepper sprays, is an irritant that causes noxious respiratory sensations and reflexes including sneezing and coughing in humans. Capsaicin binds to Transient Receptor Potential Vanilloid 1 (TRPV1), whose expression is enriched in both somatic and visceral nociceptors. Exaggerated response to inhaled capsaicin can be seen in subjects with IPF or with cough hypersensitivity syndrome and can be used as a test. Increased reactivity to capsaicin is generally considered a marker of sensitization of nociceptors. Capsaicin effects in sensory neurons dissected from mouse peripheral ganglia can be used as a model to identify nociceptors and to study the sensitization mechanisms in vitro. Response to capsaicin can be quantified in a relatively large population of dissociated sensory neurons using the method of Calcium Imaging. […]
Each point represents how well the capsaicin-induced peak is reduced by the drug when compared with negative control (1, no sensitizing solution, no GSK-1) and positive control (0, sensitizing solution, no GSK-1). Calculated, it is:
Where C=the average relative f340/f380 value of peak 3 for the sensitization control (sensitizing solution, no GSK-1). X=the individual relative f340/f380 value to be calculated, and N=the average relative f340/f380 value of peak 3 for the negative control (no sensitization solution, no GSK-1).

Consider `COc1ncc(-c2ccc3ncnc(N4CCOCC4)c3c2)cc1NS(=O)(=O)c1ccc(F)cc1F` [GSK-1, 2,4-difluoro-N-{2-(methyloxy)-5-[4-(4-morpholinyl)-6-quinazolinyl]-3-pyridinyl}benzenesulfonamide], for which the “Effect on enhancement of the Calcium Imaging response to capsaicin by the sensitizing cocktail” value is on record as “dose-dependently abolished”.
